Test results from ChEMBL document CHEMBL3045935, “Benzoxepin derivatives: design, synthesis, and pharmacological evaluation with sedativehypnotic effect” (2012).

Experiments:
Mus musculus [1] = experiment: Sedative-hypnotic activity in Mus musculus (mouse) assessed as increase in duration of phenobarbital-induced sleep at 19.6 to 42.6 mg/kg, ip incubated for 30 min prior to phenobarbital challenge relative to phenobarbital-treated mouse; format: functional; conditions: dose mg/kg 19.6-42.6; route intraperitoneal
Mus musculus [2] = experiment: Sedative-hypnotic activity in Mus musculus (mouse) assessed as decrease in onset of phenobarbital-induced sleep at 19.6 to 42.6 mg/kg, ip incubated for 30 min prior to phenobarbital challenge relative to phenobarbital-treated mouse; format: functional; conditions: dose mg/kg 19.6-42.6; route intraperitoneal

| SMILES | Time (Mus musculus [1]) [min] | Time (Mus musculus [2]) [min] |
| --- | --- | --- |
| O=C1CCCOc2ccc(Cl)cc21 | 59.5 | 34.5 |
| CN(C)CC1CCOc2ccc(Cl)cc2C1=O (configuration not stated) | 61.3 | 34 |
| O=C1c2cc(Cl)ccc2OCCC1CN1CCCCC1 (configuration not stated) | 99.3 | 24.5 |
| CN1CCN(CC2CCOc3ccc(Cl)cc3C2=O)CC1 (configuration not stated) | 92.35 | 38.8 |
| O=C1c2cc(Cl)ccc2OCCC1CN1CCN(c2ccccc2Cl)CC1 (configuration not stated) | 45.25 | 45.5 |
| O=C1c2cc(Cl)ccc2OCCC1CN1CCOCC1 (configuration not stated) | 75.25 | 40.8 |
| O=C1/C(=C\c2ccccc2)CCOc2ccc(Cl)cc21 | 84.3 | 18 |
| O=C1/C(=C\c2ccc(F)cc2)CCOc2ccc(Cl)cc21 | 103.15 | 16.5 |
| O=C1/C(=C\c2ccc(Cl)cc2)CCOc2ccc(Cl)cc21 | 105.5 | 15 |
| COc1ccc(/C=C2/CCOc3ccc(Cl)cc3C2=O)cc1 | 79.4 | 17.6 |
| O=C1c2cc(Cl)ccc2OCCC1Br (configuration not stated) | 39.15 | 47 |
| CCC1(c2ccccc2)C(=O)NC(=O)N(C2CCOc3ccc(Cl)cc3C2=O)C1=O (configuration not stated) | 123.25 | 21.5 |
| O=C1CC2CCOc3ccc(Cl)cc3C2=NN1c1ccccc1 (configuration not stated) | 100.15 | 20 |
| O=C1CC2CCOc3ccc(Cl)cc3C2=NN1c1ccc(Cl)cc1 (configuration not stated) | 42.15 | 49.5 |
| COc1ccc(N2N=C3c4cc(Cl)ccc4OCCC3CC2=O)cc1 (configuration not stated) | 38.45 | 42.5 |
| CCC1(c2ccccc2)C(=O)NC(=O)NC1=O [PHENOBARBITAL] | 100.5 | 46.8 |
